From publication PMC11003488 (Journal of Enzyme Inhibition and Medicinal Chemistry, 2023)

Legend:
Assay type in all cases: cell-based
CCRF-CEM = experiment: NCI-60 SRB growth inhibition, one-dose and five-dose; conditions: Homo sapiens
HL-60(TB) = experiment: cells; conditions: Homo sapiens
K-562 = experiment: NCI-60 SRB growth inhibition, one-dose and five-dose; conditions: Homo sapiens
MOLT-4 = experiment: as above; conditions: Homo sapiens
RPMI-8226 = experiment: as above; conditions: Homo sapiens
SR = experiment: as above; conditions: Homo sapiens
EKVX = experiment: as above; conditions: Homo sapiens
NCI-H226 = experiment: as above; conditions: Homo sapiens
NCI-H23 = experiment: as above; conditions: Homo sapiens
NCI-H322M = experiment: as above; conditions: Homo sapiens
NCI-H522 = experiment: as above; conditions: Homo sapiens
COLO 205 = experiment: as above; conditions: Homo sapiens
HCC-2998 = experiment: as above; conditions: Homo sapiens
HCT-15 = experiment: as above; conditions: Homo sapiens
HT29 = experiment: as above; conditions: Homo sapiens
KM12 = experiment: as above; conditions: Homo sapiens
SF-268 = experiment: as above; conditions: Homo sapiens
SNB-19 = experiment: as above; conditions: Homo sapiens
SNB-75 = experiment: as above; conditions: Homo sapiens
U251 = experiment: as above; conditions: Homo sapiens
LOX IMVI = experiment: as above; conditions: Homo sapiens
MALME-3M = experiment: as above; conditions: Homo sapiens
M14 = experiment: as above; conditions: Homo sapiens
MDA-MB-435 = experiment: as above; conditions: Homo sapiens
SK-MEL-2 = experiment: as above; conditions: Homo sapiens, SK-MEL-2, read-out: percent growth inhibition
SK-MEL-28 = experiment: as above; conditions: Homo sapiens
UACC-257 = experiment: as above; conditions: Homo sapiens
IGROV1 = experiment: as above; conditions: Homo sapiens
OVCAR-3 = experiment: as above; conditions: Homo sapiens
OVCAR-4 = experiment: as above; conditions: Homo sapiens
OVCAR-8 = experiment: as above; conditions: Homo sapiens, OVCAR-8, read-out: percent growth inhibition
NCI/ADR-RES = experiment: as above; conditions: Homo sapiens
786-0 = experiment: as above; conditions: Homo sapiens
A498 = experiment: as above; conditions: Homo sapiens
ACHN = experiment: as above; conditions: Homo sapiens
CAKI-1 = experiment: as above; conditions: Homo sapiens
RXF 393 = experiment: as above; conditions: Homo sapiens
SN12C = experiment: as above; conditions: Homo sapiens
PC-3 = experiment: as above; conditions: Homo sapiens
MCF7 = experiment: as above; conditions: Homo sapiens
HS 578 T = experiment: as above; conditions: Homo sapiens
T-47D = experiment: as above; conditions: Homo sapiens, T47D
MDA-MB-468 = experiment: as above; conditions: Homo sapiens
[1] = read-out: percent growth inhibition

In the case of CC(=O)Nc1ccc(/C=C/C(=O)c2cccc(NCc3csc4ccccc34)c2)cc1 [Compound 5i, (E)-N-(4–(3-(3-((benzo[b]thiophen-3-ylmethyl)amino)phenyl)-3-oxoprop-1-en-1-yl)phenyl) acetamide], the GI50 (CCRF-CEM) is reported as 2.87 µM, the inhibition at 10 µM (CCRF-CEM; [1]) is reported as 125% and the GI50 (HL-60(TB); HL-60) is reported as 3.53 µM. It also gave an inhibition at 10 µM (HL-60(TB); HL-60, read-out: percent growth inhibition) of 123%, a GI50 (K-562; K562) of 3.07 µM and an inhibition at 10 µM (K-562; K562, read-out: percent growth inhibition) of 114%. It also gave a GI50 (MOLT-4; MOLT-4) of 2.73 µM, an inhibition at 10 µM (MOLT-4; MOLT-4, read-out: percent growth inhibition) of 111% and a GI50 (RPMI-8226; RPMI-8226) of 2.56 µM. The inhibition at 10 µM (RPMI-8226; RPMI-8226, read-out: percent growth inhibition) was 121%, the GI50 (SR) was 2.79 µM and the GI50 (EKVX) was 10.8 µM. The inhibition at 10 µM (EKVX; [1]) was 73%, the GI50 (NCI-H226; NCI-H226) was 7.73 µM and the inhibition at 10 µM (NCI-H226; NCI-H226, read-out: percent growth inhibition) was 91.9%. The GI50 (NCI-H23; NCI-H23) was 9.1 µM, the inhibition at 10 µM (NCI-H23; NCI-H23, read-out: percent growth inhibition) was 57.5% and the GI50 (NCI-H322M) was 17.5 µM. The inhibition at 10 µM (NCI-H322M; [1]) was 41.2%, the GI50 (NCI-H522; NCI-H522) was 5.78 µM and the inhibition at 10 µM (NCI-H522; NCI-H522, read-out: percent growth inhibition) was 87.6%. The GI50 (COLO 205; COLO 205) was 17 µM, the inhibition at 10 µM (COLO 205; COLO 205, read-out: percent growth inhibition) was 19.8% and the GI50 (HCC-2998; HCC 2998) was 12.4 µM. It also gave an inhibition at 10 µM (HCC-2998; HCC 2998, read-out: percent growth inhibition) of 56%, a GI50 (HCT-15; HCT-15) of 2.1 µM and an inhibition at 10 µM (HCT-15; HCT-15, read-out: percent growth inhibition) of 142%. For the same compound, the GI50 (HT29; HT-29) was 5.38 µM, the inhibition at 10 µM (HT29; HT-29, read-out: percent growth inhibition) was 92.8% and the GI50 (KM12; KM12) was 5.12 µM. For the same compound, the inhibition at 10 µM (KM12; KM12, read-out: percent growth inhibition) was 129%, the GI50 (SF-268; SF-268) was 12.7 µM and the inhibition at 10 µM (SF-268; SF-268, read-out: percent growth inhibition) was 80%. For the same compound, the GI50 (SNB-19; SNB-19) was 3.76 µM, the inhibition at 10 µM (SNB-19; SNB-19, read-out: percent growth inhibition) was 98% and the GI50 (SNB-75; SNB-75) was 3.39 µM. For the same compound, the inhibition at 10 µM (SNB-75; SNB-75, read-out: percent growth inhibition) was 30.5%, the GI50 (U251; U-251) was 2.24 µM and the inhibition at 10 µM (U251; U-251, read-out: percent growth inhibition) was 165%. The GI50 (LOX IMVI) was 2.05 µM, the inhibition at 10 µM (LOX IMVI; [1]) was 174% and the GI50 (MALME-3M) was 9.28 µM. The inhibition at 10 µM (MALME-3M; [1]) was 55.5%, the GI50 (M14; M14) was 10.9 µM and the inhibition at 10 µM (M14; M14, read-out: percent growth inhibition) was 57.7%. It also gave a GI50 (MDA-MB-435; MDA-MB-435) of 4.37 µM, an inhibition at 10 µM (MDA-MB-435; MDA-MB-435, read-out: percent growth inhibition) of 49.2% and an inhibition at 10 µM (SK-MEL-2) of 39.9%. For the same compound, the GI50 (SK-MEL-28; SK-MEL-28) was 11.9 µM, the inhibition at 10 µM (SK-MEL-28; SK-MEL-28, read-out: percent growth inhibition) was 53.4% and the GI50 (UACC-257; UACC-257) was 14.2 µM. The inhibition at 10 µM (UACC-257; UACC-257, read-out: percent growth inhibition) was 50.6%, the GI50 (IGROV1; IGROV-1) was 4.18 µM and the inhibition at 10 µM (IGROV1; IGROV-1, read-out: percent growth inhibition) was 56.9%. It also gave a GI50 (OVCAR-3; OVCAR-3) of 3.47 µM, an inhibition at 10 µM (OVCAR-3; OVCAR-3, read-out: percent growth inhibition) of 133% and a GI50 (OVCAR-4; OVCAR-4) of 9.52 µM. The inhibition at 10 µM (OVCAR-4; OVCAR-4, read-out: percent growth inhibition) was 64.8%, the inhibition at 10 µM (OVCAR-8) was 131% and the GI50 (NCI/ADR-RES) was 2.79 µM. The inhibition at 10 µM (NCI/ADR-RES; [1]) was 117%, the GI50 (786-0; 786-0) was 11.4 µM and the inhibition at 10 µM (786-0; 786-0, read-out: percent growth inhibition) was 81.8%. It also gave a GI50 (A498; A498) of 17.4 µM, an inhibition at 10 µM (A498; A498, read-out: percent growth inhibition) of 9.33% and a GI50 (ACHN) of 7.35 µM. For the same compound, the inhibition at 10 µM (ACHN; [1]) was 51.4%, the GI50 (CAKI-1; CAKI-1) was 18.4 µM and the inhibition at 10 µM (CAKI-1; CAKI-1, read-out: percent growth inhibition) was 57.7%. It also gave a GI50 (RXF 393; RXF 393) of 10 µM, an inhibition at 10 µM (RXF 393; RXF 393, read-out: percent growth inhibition) of 93.2% and a GI50 (SN12C) of 3.29 µM. The inhibition at 10 µM (SN12C; [1]) was 93.3%, the GI50 (PC-3; PC-3) was 4.57 µM and the inhibition at 10 µM (PC-3; PC-3, read-out: percent growth inhibition) was 70.8%. For the same compound, the GI50 (MCF7; MCF7) was 2.4 µM, the inhibition at 10 µM (MCF7; MCF7, read-out: percent growth inhibition) was 130% and the GI50 (HS 578 T) was 4.49 µM. For the same compound, the inhibition at 10 µM (HS 578 T; [1]) was 68.5%, the GI50 (T-47D) was 4.14 µM and the inhibition at 10 µM (T-47D; [1]) was 79.7%. The GI50 (MDA-MB-468; MDA-MB-468) was 4 µM and the inhibition at 10 µM (MDA-MB-468; MDA-MB-468, read-out: percent growth inhibition) was 97.9%.
